Data reported in patent publication US10864200B2, “Stable formulations for immune-modulatory macrolides” (Roche Diagnostics Operations, Inc., priority 2017, dated 2020).
Several values for one entry are separate records, joined by “and”; a condition that tells them apart may be missing. Equal values may be shown once. Read-outs that look alike come from different tables or passages of the source.

Legend:
[1] = Real-time stability (RTS) of everolimus in chlorhexidine-containing cell-free blood hemolysate, LC-MS/MS; assay type: physicochemical; conditions: for everolimus concentration: hemolysate with 0.024% chlorhexidine
Protocol: (§1) A formulation was prepared by firstly hemolyzing human whole blood: Human EDTA whole blood of 5 donors was hemolyzed by a freeze-and-thaw cycle. After freezing the whole blood sample from each donor separately at −80° C. and thawing at room temperature, all samples were combined, mixed on a roller for at least 1 hour and then centrifuged for 15 minutes at 22° C. and 12000 g in order to remove fragments of hemolyzed blood cells potentially present. After the centrifugation, the upper section (approximately ⅘ of the whole volume) of the hemolyzed blood was used as hemolysate. Finally, chlorhexidine was added to the hemolysate to a concentration of 0.024%.
(§2) For checking the RTS, the chlorhexidine-containing hemolysate was spiked from a highly concentrated stock solution of everolimus to approx. 100 ng/ml, and aliquots thereof were stressed at 6° C. for 3, 6, 9, 12, and 15 months respectively in brown LC-MS vials. The stressed samples and the corresponding non-stressed samples (T0 samples) were analyzed by LC-MS/MS measurements.
LC-MS/MS method: Before performing the LC-MS/MS analysis, the samples were treated by addition of 10 μL isotope-labeled internal standards (d4/2×C13—everolimus) to 100 μL of the sample to be analyzed, followed by a protein precipitation by addition of 150 μL acetonitrile. The mixture was incubated at 4° C. for 60 minutes and then centrifuged (18000 g, 4° C., 30 min). The supernatant was diluted 1:4 with a solvent mixture of 30% acetonitrile and 70% water and then injected in the LC-MS/MS. The samples were quantified by an external calibration curve. The calibrator was a set of solutions with different concentrations of analyte and they were run through the same preparation workflow, with the same internal standard as the samples. For the calculation of the concentration in a sample, the response factors (ratio of analyte peak area and internal standard peak area) of the sample were referenced with the linear function of the calibration curve (ratio by concentration). The recovery value was the concentration measured at time point (Ti) compared to the non-stressed concentration at start time point (T0) as reference (see Table 3). Formulations with recoveries >90% were classified as stable.
LC-MS/MS conditions were • Solvents: A: 0.5 mM NH4Acetate in H2O/B: Methanol • Gradient: according to Table 2. • AB Sciex 6500 QTRAP/Agilent HPLC 1290-Infinity • APCI source negative mode • Column: Phenomenex—Kinetex F5, 2.6 μm particle, 150 mm×2.1 mm • Temperature: 50° C. (Column) and 8° C. (Autosampler) • Injection volume 20 μL • Calibration: external, with 6 concentration levels covering 0-500 ng/mL • MRM Transition at DP: −76 V EP: −10 V CE: −30 V CXP: −24 V • Detection: everolimus: Q1: 956.6 Da Q3: 590.2 Da; everolimus d4,2×C13: Q1: 962.2 Da Q3: 590.2 Da.

[2] = Real-time stability study of everolimus in hemolysate with NaN3 as additive; assay type: physicochemical; conditions: hemolysate with 0.009% sodium azide
[3] = cited from earlier work
[4] = known from literature; cited from earlier work
[5] = Real-time stability (RTS) of sirolimus and tacrolimus in chlorhexidine-containing cell-free blood hemolysate, LC-MS/MS; assay type: physicochemical; conditions: for real-time stability demonstrated: 6° C., chlorhexidine-containing hemolysate formulation; for area-ratio (analyte / internal standard): hemolysate with 0.024% chlorhexidine
Protocol: as §1
as §2, with “sirolimus” for “everolimus”, “ng/mL or tacrolimus to approx. 135 ng/mL,” for “ng/ml,”, “3” for “3, 6, 9, 12, and 15”, “stored at 6° C. for a couple of days until their” for “analyzed by”, “analysis.” for “measurements.”
LC-MS/MS method: Before performing the LC-MS/MS analysis the samples were prepared by addition of 10 μL structurally similar internal standards (everolimus D4 2×C13 for sirolimus and non-labeled ascomycin for tacrolimus) to 100 μL of the sample to be analyzed, followed by a protein precipitation by addition of 150 μL acetonitrile. The mixture was incubated at 4° C. for 60 minutes and then centrifuged (18000 g, 4° C., 30 min). The supernatant was 1:4 diluted with a solvent mixture of 30% acetonitrile and 70% deionized water and then injected in the LC-MS/MS. The recovery value was the found area-ratio at time point (T1) compared to the non-stressed area-ratio at start time point (T0) as reference (see table 5). Formulations with recoveries >90% were classified as stable and with 80-90% as acceptable.
LC-MS/MS conditions were • Solvents: A: 5 mM NH4Acetate in H2O+0.1% Formic acid/ • B: Methanol+0.1% Formic acid • Gradient: according to Table 4. • AB Sciex Triple Quad 6500+/Agilent HPLC 1290-Infinity II • ESI source • Column: Phenomenex—Kinetex F5, 2.6 μm particle, 50 mm×2.1 mm • Temperature: 40° C. (Column) and 8° C. (Autosampler) • Injection volume 20 μL • MRM Transition at DP: 70 V EP: 10 V CXP: 12 V • Detection: everolimus: Q1: 975.7 Da Q3: 908.7 Da CE 25 V • everolimus d4,2×C13: Q1: 981.7 Da Q3: 914.7 Da CE 25 V • sirolimus: Q1: 931.7 Da Q3: 864.6 Da CE 25 V • tacrolimus: Q1: 821.5 Da Q3: 576.4 Da CE 33 V • ascomycin: Q1: 809.5 Da Q3: 564.4 Da CE 33 V

SMILES: CO[C@H]1C[C@@H]2CC[C@@H](C)[C@@](O)(O2)C(=O)C(=O)N2CCCC[C@H]2C(=O)O[C@H]([C@H](C)C[C@@H]2CC[C@@H](OCCO)[C@H](OC)C2)CC(=O)[C@H](C)/C=C(\C)[C@@H](O)[C@@H](OC)C(=O)[C@H](C)C[C@H](C)/C=C/C=C/C=C/1C [everolimus, (1R,9S,12S,15R,16E,18R,19R,21R,23S,24E,26E,28E,30S,32S,35R)-1,18-dihydroxy-12-[(2R)-1-[(1S,3R,4R)-4-(2-hydroxyethoxy)-3-methoxycyclohexyl]propan-2-yl]-19,30-dimethoxy-15,17,21,23,29,35-hexamethyl-11,36-dioxa-4-azatricyclo hexatriaconta-16,24,26,28-tetraene-2,3,10,14,20-pentone]
- everolimus concentration ([1]; 3 months at 6° C.): 71.1 ng/mL
- everolimus concentration ([1]; 6 months at 6° C.): 81.8 ng/mL
- real-time stability demonstrated ([1]; 6° C., chlorhexidine-containing hemolysate formulation): 15 months
- everolimus concentration ([1]; 9 months at 6° C.): 74.6 ng/mL
- everolimus concentration ([1]; 12 months at 6° C.): 92.0 ng/mL
- everolimus concentration ([1]; 15 months at 6° C.): 77.8 ng/mL
- everolimus concentration ([1]; T0 (non-stressed), spiked approx. 100 ng/ml): 74.8 ng/mL
- measured value for stressed everolimus (unit not given) ([2]; 3 months at 6° C.): 0.732
- measured value for stressed everolimus (unit not given) ([2]; T0): 0.781
- Literature-provided stability of blood samples ([3]; 2-8° C., 4° C.): 7d/4 °C ^11
- Literature-provided stability of blood samples ([3]; >RT, 30° C. (in light)): 7d/30 °C (in light) ^1
- Literature-provided stability of blood samples ([3]; RT (in light)): 6h/RT (in light) ^4
- aqueous solubility [4]: poor

SMILES: CO[C@H]1C[C@@H]2CC[C@@H](C)[C@@](O)(O2)C(=O)C(=O)N2CCCC[C@H]2C(=O)O[C@H]([C@H](C)C[C@@H]2CC[C@@H](O)[C@H](OC)C2)CC(=O)[C@H](C)/C=C(\C)[C@@H](O)[C@@H](OC)C(=O)[C@H](C)C[C@H](C)/C=C/C=C/C=C/1C [sirolimus, (1R,9S,12S,15R,16E,18R,19R,21R,23S,24E,26E,28E,30S,32S,35R)-1,18-dihydroxy-12-{(2R)-1-[(1S,3R,4R)-4-hydroxy-3-methoxycyclohexyl]-2-propanyl}-19,30-dimethoxy-15,17,21,23,29,35-hexamethyl-11,36-dioxa-4-azatricyclo hexatriaconta-16,24,26,28-tetraene-2,3,10,14,20-pentone]
- real-time stability demonstrated [5]: 3 months
- Literature-provided stability of blood samples ([3]; 2-8° C., 4° C. (dark & in light)): 8d/4 °C
- Literature-provided stability of blood samples ([3]; 2-8° C., 4° C.): 7d/4 °C ^11
- Literature-provided stability of blood samples ([3]; <0° C., −20 to −80° C.): 1a/−20 to −80 °C ^3
- Literature-provided stability of blood samples ([3]; <0° C., −20° C.): 3m/−20 °C ^1 and 6m/−20 °C ^11
- Literature-provided stability of blood samples ([3]; >RT, 30° C. (dark & in light)): 8d/30 °C
- Literature-provided stability of blood samples ([3]; >RT, 30° C. (in light)): 7d/30 °C (in light) ^1
- Literature-provided stability of blood samples ([3]; RT): 1d/RT ^11 and 1d/RT ^3
- aqueous solubility [4]: poor

SMILES: C=CC[C@@H]1/C=C(\C)C[C@H](C)C[C@H](OC)[C@H]2O[C@@](O)(C(=O)C(=O)N3CCCC[C@H]3C(=O)O[C@H](/C(C)=C/[C@@H]3CC[C@@H](O)[C@H](OC)C3)[C@H](C)[C@@H](O)CC1=O)[C@H](C)C[C@@H]2OC [tacrolimus, (1R,9S,12S,13R,14S,17R,18E,21S,23S,24R,25S,27R)-1,14-dihydroxy-12-[(1E)-1-[(1R,3R,4R)-4-hydroxy-3-methoxycyclohexyl]prop-1-en-2-yl]-23,25-dimethoxy-13,19,21,27-tetramethyl-17-(prop-2-en-1-yl)-11,28-dioxa-4-azatricyclo octacos-18-ene-2,3,10,16-tetrone]
- Recovery value (area-ratio at T1 compared to T0) ([5]; 3 months at 6° C.): 98%
- area-ratio (analyte / internal standard) ([5]; 3 months at 6° C.): 0.972
- real-time stability demonstrated [5]: 3 months
- area-ratio (analyte / internal standard) ([5]; T0 (non-stressed), sirolimus approx. 100 ng/mL, tacrolimus approx. 135 ng/mL): 0.99
- Recovery value (area-ratio at T1 compared to T0) ([5]; T0 (reference)): 100%
- Literature-provided stability of blood samples (in words) ([3]; 1d/RT): not stable ^9
- Literature-provided stability of blood samples ([3]; <0° C., −70° C.): 1a/−70 °C ^8
- Literature-provided stability of blood samples ([3]; >RT, 37° C.): 3d/37 °C ^7
- Literature-provided stability of blood samples ([3]; RT): 14d/RT ^8 and 7d/RT ^7
- aqueous solubility [4]: poor
